{"source": "PubChem BioAssay AID2060892", "about": "(Molecular Pharmacology Branch, DTP, NCI, 2025)", "test_system": "HOP-62 complex spheroids with HUVEC/MSC, viability", "experiment": "Anticancer human tumor HOP-62 cell line growth inhibition [RAS];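 for all read-outs here: spheroids exposed to agents for seven days before readout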;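 for viability, T/C: 100% = DMSO vehicle control viability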", "settings": "for IC50: curve of first compound; for viability, T/C: stronger effect = lower value", "in_short": "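Agents were tested in combination matrices in half-log decrements from a top concentration at or near clinical Cmax (10 microM if undetermined). Targets were multi-cell spheroids of tumour lines plus HUVEC and MSC stromal cells.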", "data": [{"molecule": "CC1(C)CCC(Nc2ncc(C(F)(F)F)c(-c3c[nH]c4c(P(C)(C)=O)c(C#N)ccc34)n2)CN1", "note": "(centres undefined) + CCn1c(-c2cccnc2C(C)OC)c2c3cc(ccc31)N1CCOC(CC(NC(=O)C(C(C)C)N(C)C(=O)C3(F)CCN(C(=O)C#CC(C)(C)N(C)C)CC3)C(=O)N3CCCC(N3)C(=O)OCC(C)(C)C2)C1", "values": [{"measurement": "IC50", "setting": "second compound 0.000949 µM", "value": "> 300", "unit": "nM"}, {"measurement": "IC50", "setting": "second compound 0.003 µM", "value": "> 300", "unit": "nM"}, {"measurement": "IC50", "setting": "second compound 0.00949 µM", "value": "> 300", "unit": "nM"}, {"measurement": "IC50", "setting": "second compound 0.03 µM", "value": 202, "unit": "nM"}, {"measurement": "IC50", "setting": "second compound 0.0949 µM", "value": 31.2, "unit": "nM"}, {"measurement": "IC50", "setting": "second compound 0.3 µM", "value": 2.99, "unit": "nM"}, {"measurement": "viability, T/C", "setting": "second compound 0.000949 µM, first compound 0.000949 µM", "value": 108, "unit": "%"}, {"measurement": "viability, T/C", "setting": "second compound 0.000949 µM, first compound 0.003 µM", "value": 94.5, "unit": "%"}, {"measurement": "viability, T/C", "setting": "second compound 0.000949 µM, first compound 0.00949 µM", "value": 61.2, "unit": "%"}, {"measurement": "viability, T/C", "setting": "second compound 0.000949 µM, first compound 0.03 µM", "value": 68.8, "unit": "%"}, {"measurement": "viability, T/C", "setting": "second compound 0.000949 µM, first compound 0.0949 µM", "value": 80.4, "unit": "%"}, {"measurement": "viability, T/C", "setting": "second compound 0.000949 µM, first compound 0.3 µM", "value": 44.4, "unit": "%"}, {"measurement": "viability, T/C", "setting": "second compound 0.003 µM, first compound 0.000949 µM", "value": 105, "unit": "%"}, {"measurement": "viability, T/C", "setting": "second compound 0.003 µM, first compound 0.003 µM", "value": 78.5, "unit": "%"}, {"measurement": "viability, T/C", "setting": "second compound 0.003 µM, first compound 0.00949 µM", "value": 62.7, "unit": "%"}, {"measurement": "viability, T/C", "setting": "second compound 0.003 µM, first compound 0.03 µM", "value": 73.5, "unit": "%"}, {"measurement": "viability, T/C", "setting": "second compound 0.003 µM, first compound 0.0949 µM", "value": 62, "unit": "%"}, {"measurement": "viability, T/C", "setting": "second compound 0.003 µM, first compound 0.3 µM", "value": 49.6, "unit": "%"}, {"measurement": "viability, T/C", "setting": "second compound 0.00949 µM, first compound 0.000949 µM", "value": 97.3, "unit": "%"}, {"measurement": "viability, T/C", "setting": "second compound 0.00949 µM, first compound 0.003 µM", "value": 60.6, "unit": "%"}, {"measurement": "viability, T/C", "setting": "second compound 0.00949 µM, first compound 0.00949 µM", "value": 65.2, "unit": "%"}, {"measurement": "viability, T/C", "setting": "second compound 0.00949 µM, first compound 0.03 µM", "value": 66.7, "unit": "%"}, {"measurement": "viability, T/C", "setting": "second compound 0.00949 µM, first compound 0.0949 µM", "value": 61.6, "unit": "%"}, {"measurement": "viability, T/C", "setting": "second compound 0.00949 µM, first compound 0.3 µM", "value": 52.5, "unit": "%"}, {"measurement": "viability, T/C", "setting": "second compound 0.03 µM, first compound 0.000949 µM", "value": 86.8, "unit": "%"}, {"measurement": "viability, T/C", "setting": "second compound 0.03 µM, first compound 0.003 µM", "value": 72.3, "unit": "%"}, {"measurement": "viability, T/C", "setting": "second compound 0.03 µM, first compound 0.00949 µM", "value": 58.2, "unit": "%"}, {"measurement": "viability, T/C", "setting": "second compound 0.03 µM, first compound 0.03 µM", "value": 54.4, "unit": "%"}, {"measurement": "viability, T/C", "setting": "second compound 0.03 µM, first compound 0.0949 µM", "value": 42.8, "unit": "%"}, {"measurement": "viability, T/C", "setting": "second compound 0.03 µM, first compound 0.3 µM", "value": 55.6, "unit": "%"}, {"measurement": "viability, T/C", "setting": "second compound 0.0949 µM, first compound 0.000949 µM", "value": 83.3, "unit": "%"}, {"measurement": "viability, T/C", "setting": "second compound 0.0949 µM, first compound 0.003 µM", "value": 58.5, "unit": "%"}, {"measurement": "viability, T/C", "setting": "second compound 0.0949 µM, first compound 0.00949 µM", "value": 59.7, "unit": "%"}, {"measurement": "viability, T/C", "setting": "second compound 0.0949 µM, first compound 0.03 µM", "value": 55.8, "unit": "%"}, {"measurement": "viability, T/C", "setting": "second compound 0.0949 µM, first compound 0.0949 µM", "value": 33.1, "unit": "%"}, {"measurement": "viability, T/C", "setting": "second compound 0.0949 µM, first compound 0.3 µM", "value": 55.1, "unit": "%"}, {"measurement": "viability, T/C", "setting": "second compound 0.3 µM, first compound 0.000949 µM", "value": 73.3, "unit": "%"}, {"measurement": "viability, T/C", "setting": "second compound 0.3 µM, first compound 0.003 µM", "value": 49.8, "unit": "%"}, {"measurement": "viability, T/C", "setting": "second compound 0.3 µM, first compound 0.00949 µM", "value": 46.1, "unit": "%"}, {"measurement": "viability, T/C", "setting": "second compound 0.3 µM, first compound 0.03 µM", "value": 40.6, "unit": "%"}, {"measurement": "viability, T/C", "setting": "second compound 0.3 µM, first compound 0.0949 µM", "value": 40.1, "unit": "%"}, {"measurement": "viability, T/C", "setting": "second compound 0.3 µM, first compound 0.3 µM", "value": 49.2, "unit": "%"}]}, {"molecule": "CCN1CCN(Cc2ccc(Nc3ncc(F)c(-c4cc(F)c5nc(C)n(C(C)C)c5c4)n3)nc2)CC1", "note": "+ CCn1c(-c2cccnc2C(C)OC)c2c3cc(ccc31)N1CCOC(CC(NC(=O)C(C(C)C)N(C)C(=O)C3(F)CCN(C(=O)C#CC(C)(C)N(C)C)CC3)C(=O)N3CCCC(N3)C(=O)OCC(C)(C)C2)C1", "values": [{"measurement": "IC50", "setting": "second compound 0.000949 µM", "value": "> 1000", "unit": "nM"}, {"measurement": "IC50", "setting": "second compound 0.003 µM", "value": "> 1000", "unit": "nM"}, {"measurement": "IC50", "setting": "second compound 0.00949 µM", "value": "> 1000", "unit": "nM"}, {"measurement": "IC50", "setting": "second compound 0.03 µM", "value": "> 1000", "unit": "nM"}, {"measurement": "IC50", "setting": "second compound 0.0949 µM", "value": "> 1000", "unit": "nM"}, {"measurement": "IC50", "setting": "second compound 0.3 µM", "value": "> 1000", "unit": "nM"}, {"measurement": "viability, T/C", "setting": "second compound 0.000949 µM, first compound 0.00316 µM", "value": 106, "unit": "%"}, {"measurement": "viability, T/C", "setting": "second compound 0.000949 µM, first compound 0.01 µM", "value": 116, "unit": "%"}, {"measurement": "viability, T/C", "setting": "second compound 0.000949 µM, first compound 0.0316 µM", "value": 86.5, "unit": "%"}, {"measurement": "viability, T/C", "setting": "second compound 0.000949 µM, first compound 0.1 µM", "value": 108, "unit": "%"}, {"measurement": "viability, T/C", "setting": "second compound 0.000949 µM, first compound 0.316 µM", "value": 107, "unit": "%"}, {"measurement": "viability, T/C", "setting": "second compound 0.000949 µM, first compound 1 µM", "value": 92.3, "unit": "%"}, {"measurement": "viability, T/C", "setting": "second compound 0.003 µM, first compound 0.00316 µM", "value": 102, "unit": "%"}, {"measurement": "viability, T/C", "setting": "second compound 0.003 µM, first compound 0.01 µM", "value": 99.7, "unit": "%"}, {"measurement": "viability, T/C", "setting": "second compound 0.003 µM, first compound 0.0316 µM", "value": 68.9, "unit": "%"}, {"measurement": "viability, T/C", "setting": "second compound 0.003 µM, first compound 0.1 µM", "value": 97, "unit": "%"}, {"measurement": "viability, T/C", "setting": "second compound 0.003 µM, first compound 0.316 µM", "value": 97.5, "unit": "%"}, {"measurement": "viability, T/C", "setting": "second compound 0.003 µM, first compound 1 µM", "value": 76.8, "unit": "%"}, {"measurement": "viability, T/C", "setting": "second compound 0.00949 µM, first compound 0.00316 µM", "value": 100, "unit": "%"}, {"measurement": "viability, T/C", "setting": "second compound 0.00949 µM, first compound 0.01 µM", "value": 81.7, "unit": "%"}, {"measurement": "viability, T/C", "setting": "second compound 0.00949 µM, first compound 0.0316 µM", "value": 84.2, "unit": "%"}, {"measurement": "viability, T/C", "setting": "second compound 0.00949 µM, first compound 0.1 µM", "value": 87.9, "unit": "%"}, {"measurement": "viability, T/C", "setting": "second compound 0.00949 µM, first compound 0.316 µM", "value": 88.6, "unit": "%"}, {"measurement": "viability, T/C", "setting": "second compound 0.00949 µM, first compound 1 µM", "value": 79.2, "unit": "%"}, {"measurement": "viability, T/C", "setting": "second compound 0.03 µM, first compound 0.00316 µM", "value": 96.6, "unit": "%"}, {"measurement": "viability, T/C", "setting": "second compound 0.03 µM, first compound 0.01 µM", "value": 86.7, "unit": "%"}, {"measurement": "viability, T/C", "setting": "second compound 0.03 µM, first compound 0.0316 µM", "value": 82.8, "unit": "%"}, {"measurement": "viability, T/C", "setting": "second compound 0.03 µM, first compound 0.1 µM", "value": 85.3, "unit": "%"}, {"measurement": "viability, T/C", "setting": "second compound 0.03 µM, first compound 0.316 µM", "value": 78.6, "unit": "%"}, {"measurement": "viability, T/C", "setting": "second compound 0.03 µM, first compound 1 µM", "value": 89.5, "unit": "%"}, {"measurement": "viability, T/C", "setting": "second compound 0.0949 µM, first compound 0.00316 µM", "value": 87.8, "unit": "%"}, {"measurement": "viability, T/C", "setting": "second compound 0.0949 µM, first compound 0.01 µM", "value": 97.7, "unit": "%"}, {"measurement": "viability, T/C", "setting": "second compound 0.0949 µM, first compound 0.0316 µM", "value": 79.7, "unit": "%"}, {"measurement": "viability, T/C", "setting": "second compound 0.0949 µM, first compound 0.1 µM", "value": 74.4, "unit": "%"}, {"measurement": "viability, T/C", "setting": "second compound 0.0949 µM, first compound 0.316 µM", "value": 68.3, "unit": "%"}, {"measurement": "viability, T/C", "setting": "second compound 0.0949 µM, first compound 1 µM", "value": 97.4, "unit": "%"}, {"measurement": "viability, T/C", "setting": "second compound 0.3 µM, first compound 0.00316 µM", "value": 90.2, "unit": "%"}, {"measurement": "viability, T/C", "setting": "second compound 0.3 µM, first compound 0.01 µM", "value": 78.9, "unit": "%"}, {"measurement": "viability, T/C", "setting": "second compound 0.3 µM, first compound 0.0316 µM", "value": 79.7, "unit": "%"}, {"measurement": "viability, T/C", "setting": "second compound 0.3 µM, first compound 0.1 µM", "value": 70.2, "unit": "%"}, {"measurement": "viability, T/C", "setting": "second compound 0.3 µM, first compound 0.316 µM", "value": 74.3, "unit": "%"}, {"measurement": "viability, T/C", "setting": "second compound 0.3 µM, first compound 1 µM", "value": 91.4, "unit": "%"}]}]}
